# Test results taken from patent publication US10597388B2, “Pyridazinone herbicides” (FMC CORPORATION, priority 2014, dated 2020).
# What was measured:
# Format in all cases: in vivo
# [1] = test system: barnyardgrass (Echinochloa crus-galli); assay: Test A greenhouse herbicide test, pre- and postemergence
# In short: (§1)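 Seeds in loam–sand blend received a preemergence directed soil spray; plants at 2–10 cm, one- to two-leaf stage, received postemergence sprays. Compounds in a non-phytotoxic solvent with surfactant. After about 10 d in a greenhouse, injury rated visually versus untreated controls on a 0–100 scale (100 = complete control).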
# corn (Zea mays) = assay: as above; conditions: Postemergence
# In short: as §1
# [2] = test system: foxtail, giant (giant foxtail, Setaria faberii); assay: as above
# In short: as §1
# kochia (Kochia scoparia) = assay: as above
# In short: as §1
# [3] = test system: pigweed (Amaranthus retroflexus); assay: as above
# In short: as §1
# [4] = test system: ragweed (common ragweed, Ambrosia elatior); assay: as above
# In short: as §1
# [5] = test system: ryegrass, Italian (Italian ryegrass, Lolium multiflorum); assay: as above
# In short: as §1
# [6] = test system: wheat (Triticum aestivum); assay: as above; conditions: Postemergence
# In short: as §1
# [7] = test system: lambsquarters (Chenopodium album); assay: Test C greenhouse herbicide test, pre- and postemergence
# In short: (§2)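 Seeds sown in loam–sand blend treated preemergence; plants in peat-based medium sprayed postemergence at 2–18 cm (1- to 4-leaf stage); chemicals in non-phytotoxic solvent with surfactant. Greenhouse 13–15 d, then visual rating versus controls on 0–100 scale (0 no effect, 100 complete control).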
# [8] = test system: nutsedge, yellow (yellow nutsedge, Cyperus esculentus); assay: as above
# In short: as §2
# [9] = test system: ryegrass, Italian (Italian ryegrass, Lolium multiflorum); assay: as above
# In short: as §2
# [10] = Postemergence, 125 g ai/ha, 0 to 100 scale where 0 is no effect and 100 is complete control
# [11] = Postemergence, 500 g ai/ha, visual rating after approx. 10 d, 0 to 100 scale (0 no effect, 100 complete control)
# [12] = Preemergence, 125 g ai/ha, 0 to 100 scale where 0 is no effect and 100 is complete control
# [13] = Preemergence, 500 g ai/ha, 0 to 100 scale where 0 is no effect and 100 is complete control
# [14] = 125 g ai/ha, 0 to 100 scale where 0 is no effect and 100 is complete control
# [15] = 500 g ai/ha, visual rating after approx. 10 d, 0 to 100 scale (0 no effect, 100 complete control)
# [16] = Postemergence, 31 g ai/ha, scale 0 to 100 (0 no effect, 100 complete control)
# [17] = Postemergence, 125 g ai/ha, scale 0 to 100, 0 is no effect, 100 is complete control
# [18] = Postemergence, 250 g ai/ha, scale 0 to 100, 0 no effect, 100 complete control, 13 to 15 d
# [19] = Preemergence, 31 g ai/ha, scale 0 to 100, 0 is no effect, 100 is complete control
# [20] = Preemergence, 62 g ai/ha, scale 0 to 100, 0 is no effect, 100 is complete control
# [21] = Preemergence, 125 g ai/ha, scale 0 to 100, 0 is no effect, 100 is complete control
# [22] = Preemergence, 250 g ai/ha, scale 0 to 100 (0 no effect, 100 complete control)
# [23] = Postemergence, 62 g ai/ha, 0 to 100 scale (0 no effect, 100 complete control)
# [24] = postemergence, 125 g ai/ha, scale 0 to 100, 0 no effect, 100 complete control
smiles,measurement,setting,value
Cc1nn(C)c(=O)c(-c2ccc(F)c3ccccc23)c1OC(=O)CC(F)(F)F [Compound 123],"Plant response rating, Barnyardgrass",[1]; [10],40
same,"Plant response rating, Barnyardgrass",[1]; [11],70
same,Barnyardgrass plant response rating,[1]; [12],0
same,"Plant response rating, Barnyardgrass",[1]; [13],80
same,"Plant response rating, Corn",corn (Zea mays); [14],0
same,"Plant response rating, Corn",corn (Zea mays); [15],20
same,"Plant response rating, Foxtail, Giant",[2]; [10],50
same,"Plant response rating, Foxtail, Giant",[2]; [11],60
same,"Foxtail, Giant plant response rating",[2]; [12],70
same,"Plant response rating, Foxtail, Giant",[2]; [13],70
same,"Plant response rating, Kochia",kochia (Kochia scoparia); [10],70
same,"Plant response rating, Kochia",kochia (Kochia scoparia); [11],70
same,Kochia plant response rating,kochia (Kochia scoparia); [12],50
same,"Plant response rating, Kochia",kochia (Kochia scoparia); [13],100
same,"Plant response rating, Pigweed",[3]; [10],60
same,"Plant response rating, Pigweed",[3]; [11],70
same,Pigweed plant response rating,[3]; [12],100
same,"Plant response rating, Pigweed",[3]; [13],100
same,"Plant response rating, Ragweed",[4]; [10],50
same,"Plant response rating, Ragweed",[4]; [11],90
same,Ragweed plant response rating,[4]; [12],60
same,"Plant response rating, Ragweed",[4]; [13],70
same,"Plant response rating, Ryegrass, Italian",[5]; [10],90
same,"Plant response rating, Ryegrass, Italian",[5]; [11],100
same,"Ryegrass, Italian plant response rating",[5]; [12],90
same,"Plant response rating, Ryegrass, Italian",[5]; [13],100
same,"Plant response rating, Wheat",[6]; [14],0
same,"Plant response rating, Wheat",[6]; [15],20
same,"Plant response rating, Lambsquarters",[7]; [16],95
same,"Plant response rating, Lambsquarters",[7]; [17],100
same,"Plant response rating, Lambsquarters",[7]; [18],100
same,"Plant response rating, Nutsedge, Yellow",[8]; [16],55
same,"Plant response rating, Nutsedge, Yellow",[8]; [17],85
same,"Plant response rating, Nutsedge, Yellow",[8]; [18],90
same,"Plant response rating, Ryegrass, Italian",[9]; [16],90
same,"Plant response rating, Ryegrass, Italian",[9]; [17],90
same,"Plant response rating, Ryegrass, Italian",[9]; [18],95
Cc1ccc2ccccc2c1-c1c(O)c(Cl)nn(C)c1=O [Compound 125],"Plant response rating, Barnyardgrass",[1]; [10],90
same,"Plant response rating, Barnyardgrass",[1]; [11],90
same,Barnyardgrass plant response rating,[1]; [12],70
same,"Plant response rating, Barnyardgrass",[1]; [13],90
same,"Plant response rating, Corn",corn (Zea mays); [14],20
same,"Plant response rating, Corn",corn (Zea mays); [15],30
same,"Plant response rating, Foxtail, Giant",[2]; [10],90
same,"Plant response rating, Foxtail, Giant",[2]; [11],90
same,"Foxtail, Giant plant response rating",[2]; [12],90
same,"Plant response rating, Foxtail, Giant",[2]; [13],100
same,"Plant response rating, Kochia",kochia (Kochia scoparia); [10],100
same,"Plant response rating, Kochia",kochia (Kochia scoparia); [11],100
same,Kochia plant response rating,kochia (Kochia scoparia); [12],60
same,"Plant response rating, Kochia",kochia (Kochia scoparia); [13],90
same,"Plant response rating, Pigweed",[3]; [10],100
same,"Plant response rating, Pigweed",[3]; [11],100
same,Pigweed plant response rating,[3]; [12],100
same,"Plant response rating, Pigweed",[3]; [13],100
same,"Plant response rating, Ragweed",[4]; [10],90
same,"Plant response rating, Ragweed",[4]; [11],100
same,Ragweed plant response rating,[4]; [12],80
same,"Plant response rating, Ragweed",[4]; [13],90
same,"Plant response rating, Ryegrass, Italian",[5]; [10],100
same,"Plant response rating, Ryegrass, Italian",[5]; [11],100
same,"Ryegrass, Italian plant response rating",[5]; [12],100
same,"Plant response rating, Ryegrass, Italian",[5]; [13],100
same,"Plant response rating, Wheat",[6]; [14],50
same,"Plant response rating, Wheat",[6]; [15],80
same,"Plant response rating, Lambsquarters",[7]; [16],90
same,"Plant response rating, Lambsquarters",[7]; [17],98
same,"Plant response rating, Lambsquarters",[7]; [18],100
same,"Plant response rating, Lambsquarters",[7]; [19],90
same,"Plant response rating, Lambsquarters",[7]; [20],100
same,"Plant response rating, Lambsquarters",[7]; [21],100
same,Lambsquarters plant response rating,[7]; [22],100
same,"Plant response rating, Nutsedge, Yellow",[8]; [16],35
same,"Plant response rating, Nutsedge, Yellow",[8]; [17],85
same,"Plant response rating, Nutsedge, Yellow",[8]; [18],90
same,"Plant response rating, Nutsedge, Yellow",[8]; [19],65
same,"Plant response rating, Nutsedge, Yellow",[8]; [20],95
same,"Plant response rating, Nutsedge, Yellow",[8]; [21],95
same,"Nutsedge, Yellow plant response rating",[8]; [22],90
same,"Plant response rating, Ryegrass, Italian",[9]; [16],85
same,"Plant response rating, Ryegrass, Italian",[9]; [17],95
same,"Plant response rating, Ryegrass, Italian",[9]; [18],95
same,"Plant response rating, Ryegrass, Italian",[9]; [19],85
same,"Plant response rating, Ryegrass, Italian",[9]; [20],95
same,"Plant response rating, Ryegrass, Italian",[9]; [21],95
same,"Ryegrass, Italian plant response rating",[9]; [22],95
Cc1nn(C)c(=O)c(-c2cccc3ccc(C#N)cc23)c1O [Compound 127],"Plant response rating, Barnyardgrass",[1]; [10],10
same,"Plant response rating, Barnyardgrass",[1]; [11],50
same,Barnyardgrass plant response rating,[1]; [12],10
same,"Plant response rating, Barnyardgrass",[1]; [13],40
same,"Plant response rating, Corn",corn (Zea mays); [14],0
same,"Plant response rating, Corn",corn (Zea mays); [15],10
same,"Plant response rating, Foxtail, Giant",[2]; [10],10
same,"Plant response rating, Foxtail, Giant",[2]; [11],60
same,"Foxtail, Giant plant response rating",[2]; [12],50
same,"Plant response rating, Foxtail, Giant",[2]; [13],60
same,"Plant response rating, Kochia",kochia (Kochia scoparia); [10],70
same,"Plant response rating, Kochia",kochia (Kochia scoparia); [11],80
same,Kochia plant response rating,kochia (Kochia scoparia); [12],0
same,"Plant response rating, Kochia",kochia (Kochia scoparia); [13],90
same,"Plant response rating, Pigweed",[3]; [10],90
same,"Plant response rating, Pigweed",[3]; [11],100
same,Pigweed plant response rating,[3]; [12],70
same,"Plant response rating, Pigweed",[3]; [13],100
same,"Plant response rating, Ragweed",[4]; [10],60
same,"Plant response rating, Ragweed",[4]; [11],80
same,Ragweed plant response rating,[4]; [12],30
same,"Plant response rating, Ragweed",[4]; [13],70
same,"Plant response rating, Ryegrass, Italian",[5]; [10],80
same,"Plant response rating, Ryegrass, Italian",[5]; [11],90
same,"Ryegrass, Italian plant response rating",[5]; [12],60
same,"Plant response rating, Ryegrass, Italian",[5]; [13],90
same,"Plant response rating, Wheat",[6]; [14],0
same,"Plant response rating, Wheat",[6]; [15],20
same,"Plant response rating, Lambsquarters",[7]; [16],70
same,Lambsquarters plant response rating,[7]; [23],80
same,"Plant response rating, Lambsquarters",[7]; [18],98
same,Lambsquarters plant response rating,[7]; [24],85
same,"Plant response rating, Nutsedge, Yellow",[8]; [16],10
same,"Nutsedge, Yellow plant response rating",[8]; [23],35
same,"Plant response rating, Nutsedge, Yellow",[8]; [18],70
same,"Nutsedge, Yellow plant response rating",[8]; [24],60
same,"Plant response rating, Ryegrass, Italian",[9]; [16],50
same,"Ryegrass, Italian plant response rating",[9]; [23],75
same,"Plant response rating, Ryegrass, Italian",[9]; [18],90
same,"Ryegrass, Italian plant response rating",[9]; [24],80
